US7781594B2, “5-(4-methanesulfonyl-phenyl)-thiazole derivatives for the treatment of acute and chronic inflammatory diseases” (Faes Farma, S.A., priority 2008, dated 2010)

Experiments:
Type in all cases: cell-based, human
IL-8 [1] = assay: IL-8 production by PBMC from healthy volunteers, CBA
Description: (§1) CBA protocol was followed according to the manufacturer's instructions. The election of microparticles was performed following the summary of FIG. 1.
(§2) The acquisition on samples was performed with the BD FACS Array Bioanalyser System (FACSArray, Becton Dickinson, San José, Calif., USA) and the analysis of the results was completed with the software FCAP Array (Becton Dickinson) in a PC computer.
(§3) Briefly, the experimental protocol consisted of a plate pre-washing out with Wash Buffer. After decantation, the mixture of capture microparticles was re-suspended in the vortex. Standards and samples were added in the adequate dilution. After permanent stirring incubation during 1 h, the PE detection reagent was added and incubated again during 2 h at room temperature. After a washing-out, the acquisition was performed in the flow cytometer.
The effect of compound 12 on the IL-8 production by the PBMC from healthy volunteers was further investigated, both in the presence and absence of LPS stimuli and monoclonal antibodies anti-CD3 and anti-CD28. PBMC (5×10^4 cells/well) from 13 healthy volunteers were cultured in duplicate in 200 μl of complete medium supplemented with the highest solvent concentration (10^−6 M), and 10^−6 M, 10^−7 M and 10^−8 M of compound 12, in the presence and absence of either LPS (10 μg/ml) or anti-CD3 (12.5 ng/ml)+anti-CD28 (⅓×10^5), during 24 hours. Culture supernatants were frozen at −20° C. and IL-8 concentration was quantified by BD FACS Array Bioanalyser by using CBA Flex Set, specific to determine the IL-8 concentration, following the manufacturer instructions.

TNF-alpha = TNF-alpha production by PBMC from patients with rheumatoid arthritis, CBA
Description: as §1, §2
Briefly, the experimental protocol consisted of a plate pre-washing out with Wash Buffer. After decantation, the mixture of capture microparticles was re-suspended in the vortex. Standards and samples were added in the adequate dilution. […]
In another experiment, PBMC (5×10^4 cells per well) from 7 patients with rheumatoid arthritis were cultured in duplicate in 200 μl of complete medium supplemented with the highest solvent (10^−6 M), and 10^−6 M, 10^−7 M and 10^−8 M compound 12 and in the presence and absence of either LPS (10 μg/ml), or anti-CD3 (12.5 ng/ml) (Orthoclone OKT3, Orthopharmaceutical Corporation, Raritan N.J., USA)+anti-CD28 (⅓×10^5) (Clon 15E8, Menarini, Madrid, Spain), during 24 hours. Culture supernatants were frozen at −20° C. and the concentration of TNF-alpha quantified by BD FACS Array Bioanalyser by using CBA Flex Set (Becton Dickinson), specific for determining the concentration of that cytokine, following the manufacturer instructions.

IFN-gamma = IFN-gamma production by PBMC from healthy volunteers, CBA
Description: as §1, §2
as §3, with “After a washing-out, the acquisition was performed in the flow cytometer.” left out
PBMC (5×10^4 cells per well) from 13 healthy volunteers were cultured in duplicate in 200 μl of complete medium supplemented with the highest solvent concentration (10^−6 M), and 10^−6 M, 10^−7 M and 10^−8 M of compound 12 in the presence or absence, either of LPS (10 μg/ml), or anti-CD3 (12.5 ng/ml)+anti-CD28 (⅓×10^5), during 24 hours. Culture supernatants were frozen at −20° C. and the concentration of IFN-gamma was quantified by BD FACS Array Bioanalyser by using CBA Flex Set (Becton Dickinson), specific to determine the concentration of IFN-gamma, following the manufacturer instructions.

IL-8 [2] = assay: IL-8 production by PBMC from patients with rheumatoid arthritis, CBA
Description: as §1, §2, §3
The effect on IL-8 production by PBMC from patients with rheumatoid arthritis was also studied. […] Culture supernatants were frozen at −20° C. and IL-8 concentration was quantified by BD FACS Array Bioanalyser by using CBA Flex Set, specific to determine IL-8 concentration, following the manufacturer instructions.

[3] = test system: PBMC from healthy volunteers; assay: Proliferative response of PBMC, 3H-thymidine incorporation; conditions: absence or presence of PHA, PHA plus IL-2, or anti-CD3 + anti-CD28, 4 days, FIGS. 11a and 11b
Description: Faced against a mitogen stimulation, lymphocytes suffer a blastogenesis and cellular differentiation process. The method used to quantify the cellular proliferation was the assay of the incorporation of ^3[H]-Thymidine to the DNA de novo synthesized, and the emission of betha-radiation from the cellular cultures dried extracts (to which the tritiated base was added) was detected before its ending and harvesting. In the different experiments performed to study the proliferation, the purified cellular preparations were incubated in 96 microwells plain bottom plates at concentrations of 5×10^4 cells/well (200 μl final volume), in the presence of different concentrations of various mitogens with triplicate repetitions and along 4 days of culture.
The response to a specific stimuli depended on the density and cell type studied, as well as of the culture time and of the mitogenic agent concentration. […]
PBMC was cultured during 4 days (50,000 cells per well) at 37° C. and 5% CO2 atmosphere (Cell incubator HERA Cell 150, Thermoscientific, Thermoelectron, 63505 Lagenselbold, GE) in complete culture medium. […] The DNA-incorporated radioactive was quantified by using a betha particles counter Wallac Oy.

With Cc1nc(OC2CCCC2)c(-c2ccc(S(C)(=O)=O)cc2)s1 [Compound 12, 4-cyclopentyloxy-5-(4-methylsulfonyl-phenyl)-2-methyl-thiazole] the “Effect on IL-8 production under LPS stimulation of PBMC” value (IL-8 [1]) was “no effects were observed”, the “Effect on spontaneous production of IL-8 by PBMC” value (IL-8 [1]; 10^−6 M and 10^−7 M, p<0.05, FIG. 7) was “significantly inhibited” and the “Effect on IL-8 production induced by anti-CD3 and anti-CD28” value (IL-8 [1]; 10^−8 M) was “significant inhibition”. For the same compound, the “Effect on TNF-alpha production by PBMC, spontaneous or anti-CD3 and anti-CD28 stimulated” value (TNF-alpha) was “neither inhibited the spontaneous TNF-alpha production nor the one obtained after stimulation with monoclonal antibodies anti-CD3 and anti-CD28”, the “Effect on TNF-alpha production in LPS-stimulated PBMC” value (TNF-alpha; 10^−6 M, p<0.05, FIG. 4) was “significantly inhibited” and the “Effect on IFN-gamma production by PBMC, LPS-stimulated or anti-CD3 and anti-CD28 stimulated” value (IFN-gamma; 10^−6 M, p<0.05, FIG. 5) was “significantly inhibited”. For the same compound, the “Effect on spontaneous secretion of IFN-gamma by PBMC” value (IFN-gamma; no stimulus) was “not modified”, the “Effect on IL-8 production by PBMC, spontaneous or anti-CD3 and anti-CD28 induced” value (IL-8 [2]) was “neither modified the spontaneous IL-8 production nor that induced by the combination of monoclonal antibodies anti-CD3 and anti-CD28” and the “Effect on LPS-induced production of IL-8 in PBMC” value (IL-8 [2]; 10^−6 M and 10^−8 M, FIG. 8) was “significantly inhibited”. The “Effect on the proliferative response of PBMC” value [3] was “did not significantly modify”.
